The values that follow come from PMC6618241 (Angewandte Chemie (International Ed. in English), 2019).

For this assay, the system named is MRSA USA300 LAC. Nature of the assay: Antimicrobial activity assay. In kind it is cell-based, Staphylococcus aureus.

For the substance “(CPraWLVWV) (head to tail) [compound 24, 2‐Pra‐6‐Trp‐lug]”, the “antimicrobial activity against USA300 (in words)” value (MIC ≥100 μg mL^−1 regarded as inactive) is recorded as “active”. For the same substance, under “from MIC values, compared with 1”, the “change of antimicrobial activity relative to 1” value is “equal activity”.
